According to BindingDB's records for patent US20240066136 (Cullgen (Shanghai), 2024):

Molecular target: DNA damage-binding protein 1 (Homo sapiens, UniProt Q16531)
Experiment: Surface Plasmon Resonance (SPR) Binding Assay
Procedure: Surface plasmon resonance (SPR) binding assay. All SPR studies were performed on a Biacore X100 plus or T200 instrument (GE Healthcare). Immobilization of purified His-DDB1 was carried out at 25° C. using a CM5 sensor chip. The surface was pre-equilibrated in HBS-EP running buffer (10 mM HEPES, pH7.4, 150 mM NaCl, 3 mM EDTA, 0.05% P20), then activated with EDC/NHS. His-DDB1 proteins were immobilized by amine coupling to a density of 11,000-13,000 resonance units (RUs) on flow cell FC2, whereas flow cell FC1 was used as reference. Both DDB1 immobilized and reference surfaces were deactivated with 1M ethanolamine.

Sequence of DNA damage-binding protein 1 (Q16531 whole entry): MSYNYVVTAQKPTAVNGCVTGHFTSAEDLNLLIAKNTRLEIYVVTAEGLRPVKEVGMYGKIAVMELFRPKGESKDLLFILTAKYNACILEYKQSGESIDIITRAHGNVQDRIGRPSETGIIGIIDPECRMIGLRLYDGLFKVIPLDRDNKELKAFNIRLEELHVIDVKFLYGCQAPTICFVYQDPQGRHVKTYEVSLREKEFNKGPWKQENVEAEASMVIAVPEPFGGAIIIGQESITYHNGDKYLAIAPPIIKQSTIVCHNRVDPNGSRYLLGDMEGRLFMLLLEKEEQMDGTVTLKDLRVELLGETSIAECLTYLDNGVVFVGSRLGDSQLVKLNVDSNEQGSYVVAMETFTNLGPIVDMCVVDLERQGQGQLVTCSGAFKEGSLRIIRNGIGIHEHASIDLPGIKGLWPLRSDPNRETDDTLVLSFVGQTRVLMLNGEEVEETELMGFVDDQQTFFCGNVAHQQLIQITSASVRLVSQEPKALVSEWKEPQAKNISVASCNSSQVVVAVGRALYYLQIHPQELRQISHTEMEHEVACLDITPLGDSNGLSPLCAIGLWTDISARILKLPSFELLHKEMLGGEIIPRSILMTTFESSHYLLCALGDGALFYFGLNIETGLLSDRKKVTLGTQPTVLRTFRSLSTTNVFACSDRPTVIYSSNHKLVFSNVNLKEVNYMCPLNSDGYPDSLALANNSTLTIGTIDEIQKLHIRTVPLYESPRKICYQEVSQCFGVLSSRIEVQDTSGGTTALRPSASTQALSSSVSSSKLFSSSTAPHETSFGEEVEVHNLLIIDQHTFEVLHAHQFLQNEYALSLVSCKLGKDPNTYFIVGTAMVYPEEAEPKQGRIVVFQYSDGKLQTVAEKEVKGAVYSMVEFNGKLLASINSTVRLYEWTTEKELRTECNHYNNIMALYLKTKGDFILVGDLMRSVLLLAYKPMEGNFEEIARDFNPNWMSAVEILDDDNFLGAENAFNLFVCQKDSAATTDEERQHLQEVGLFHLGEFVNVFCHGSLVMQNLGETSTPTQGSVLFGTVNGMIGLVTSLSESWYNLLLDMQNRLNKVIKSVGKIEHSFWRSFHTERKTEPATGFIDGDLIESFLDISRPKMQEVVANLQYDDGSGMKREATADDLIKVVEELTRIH

Q: How did the Kd turn out when CCCC(=O)Nc1ccc(C(=O)Nc2ncc([N+](=O)[O-])s2)c(OC(=O)CCC)c1 [US20240066136,Compound B-24] was run?
A: Its Kd is “in the range around 60 µM”.

Q: CC[C@H](C)[C@H](N)C(=O)N[C@@H](CC(C)C)C(=O)N1CCC[C@H]1C(=O)N[C@@H](CCCCN)C(=O)N[C@H](C(=O)N[C@@H](CC(C)C)C(=O)N[C@@H](Cc1cnc[nH]1)C(=O)N[C@@H](CCCCN)C(=O)N[C@@H](CCCNC(=N)N)C(=O)N[C@H](C(=O)N[C@@H](CC(C)C)C(=O)NCC(=O)N[C@@H](CC(C)C)C(=O)N[C@@H](CO)C(=O)O)[C@@H](C)O)C(C)C [US20240066136,Peptide 1] was tested. Which Kd did it give?
A: The Kd was less than 20 µM.

Q: Which Kd does the source give for “H-ILPKVLHKRTFGL-OH [US20240066136,Peptide 4]” here?
A: The Kd was less than 20 µM.

Q: Which Kd does the source give for NCCOCCCOCCOCCC(=O)Nc1ccccc1C(=O)Nc1ncc([N+](=O)[O-])s1 [US20240066136,Compound BL-3] here?
A: The Kd was “in the range around 60 µM”.

Q: Cc1nc(NC(=O)c2ccccc2NC(=O)CCOCCOCCCOCCN)sc1[N+](=O)[O-] [US20240066136,Compound BL-2] was tested. Which Kd did it give?
A: Its Kd is “in the range around 60 µM”.

Q: For “H-NFTSRLNRRASFP-OH [US20240066136,Peptide 6]”, which Kd is on record?
A: The Kd was less than 20 µM.

Q: CC[C@H](C)[C@H](N)C(=O)N[C@@H](CC(C)C)C(=O)N1CCC[C@H]1C(=O)N[C@@H](CCCCN)C(=O)N[C@H](C(=O)N[C@@H](CC(C)C)C(=O)N[C@@H](Cc1cnc[nH]1)C(=O)N[C@@H](CCCCN)C(=O)N[C@@H](CCCNC(=N)N)C(=O)N[C@H](C(=O)N[C@@H](CC(C)C)C(=O)NCC(=O)N[C@@H](CC(C)C)C(=O)O)[C@@H](C)O)C(C)C [US20240066136,Peptide 3] was tested. Which Kd did it give?
A: The Kd was less than 20 µM.

Q: For “H-ILPKVWHKRELGLS-OH [US20240066136,Peptide 2]”, which Kd is on record?
A: The Kd was less than 20 µM.

Q: With CC(=O)Nc1cc(C(=O)NCCCCCCN)ccc1C(=O)Nc1nc(C)c([N+](=O)[O-])s1 [US20240066136,Compound BL-4] as the compound, how does the Kd read?
A: The Kd was greater than 0.1 µM.

Q: Which Kd does the source give for “H-KVLHKRTLG-OH [US20240066136,Peptide 5]” here?
A: Its Kd is less than 20 µM.

Q: CCCC(=O)Nc1ccc(C(=O)Nc2ncc([N+](=O)[O-])s2)c(NC(C)=O)c1 [US20240066136,Compound B-146] was tested. Which Kd did it give?
A: The Kd was 20 to 100 µM.
